Active and inactive are the calls of the source.
Tests used:
[1] = biological target: T1, Cytochrome P450 1A2 (Homo sapiens, UniProt P05177);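 note: PubChem cytochrome P450 panel assay, CYP1A2 panel member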
T1 sequence (P05177 whole entry): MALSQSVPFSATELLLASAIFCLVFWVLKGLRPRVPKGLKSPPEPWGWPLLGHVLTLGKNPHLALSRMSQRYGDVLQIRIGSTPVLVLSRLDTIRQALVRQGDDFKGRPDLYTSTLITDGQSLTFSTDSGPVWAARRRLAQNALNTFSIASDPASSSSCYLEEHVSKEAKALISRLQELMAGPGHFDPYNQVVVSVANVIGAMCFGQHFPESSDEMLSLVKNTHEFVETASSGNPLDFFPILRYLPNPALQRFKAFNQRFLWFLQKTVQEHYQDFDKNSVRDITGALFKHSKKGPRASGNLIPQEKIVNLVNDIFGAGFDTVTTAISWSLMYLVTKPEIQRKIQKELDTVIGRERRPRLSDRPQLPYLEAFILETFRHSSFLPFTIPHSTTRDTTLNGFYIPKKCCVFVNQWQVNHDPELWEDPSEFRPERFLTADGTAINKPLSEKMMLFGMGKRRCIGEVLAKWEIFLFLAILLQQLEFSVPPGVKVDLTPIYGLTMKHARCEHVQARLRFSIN

[2] = biological target: Cytochrome P450 3A4 (Homo sapiens, UniProt P08684);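 note: CYP3A4 tested as one member of a cytochrome P450 panel screen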
Sequence of Cytochrome P450 3A4 (P08684 whole entry): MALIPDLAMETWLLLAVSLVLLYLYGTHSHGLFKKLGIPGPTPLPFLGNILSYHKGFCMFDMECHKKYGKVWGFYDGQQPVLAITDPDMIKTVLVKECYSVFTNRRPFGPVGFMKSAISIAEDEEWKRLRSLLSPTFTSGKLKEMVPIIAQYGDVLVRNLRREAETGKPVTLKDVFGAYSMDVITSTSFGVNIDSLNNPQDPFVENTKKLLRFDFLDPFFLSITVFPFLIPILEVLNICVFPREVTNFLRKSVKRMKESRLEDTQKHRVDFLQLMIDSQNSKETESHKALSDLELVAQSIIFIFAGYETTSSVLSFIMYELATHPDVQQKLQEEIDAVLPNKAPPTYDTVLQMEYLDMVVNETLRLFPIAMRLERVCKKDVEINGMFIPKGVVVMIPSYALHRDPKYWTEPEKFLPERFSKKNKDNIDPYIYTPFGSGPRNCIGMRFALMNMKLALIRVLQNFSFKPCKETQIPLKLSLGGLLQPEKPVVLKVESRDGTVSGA

[3] = biological target: Cytochrome P450 2C9 (Homo sapiens, UniProt P11712)
Sequence of Cytochrome P450 2C9 (P11712 whole entry): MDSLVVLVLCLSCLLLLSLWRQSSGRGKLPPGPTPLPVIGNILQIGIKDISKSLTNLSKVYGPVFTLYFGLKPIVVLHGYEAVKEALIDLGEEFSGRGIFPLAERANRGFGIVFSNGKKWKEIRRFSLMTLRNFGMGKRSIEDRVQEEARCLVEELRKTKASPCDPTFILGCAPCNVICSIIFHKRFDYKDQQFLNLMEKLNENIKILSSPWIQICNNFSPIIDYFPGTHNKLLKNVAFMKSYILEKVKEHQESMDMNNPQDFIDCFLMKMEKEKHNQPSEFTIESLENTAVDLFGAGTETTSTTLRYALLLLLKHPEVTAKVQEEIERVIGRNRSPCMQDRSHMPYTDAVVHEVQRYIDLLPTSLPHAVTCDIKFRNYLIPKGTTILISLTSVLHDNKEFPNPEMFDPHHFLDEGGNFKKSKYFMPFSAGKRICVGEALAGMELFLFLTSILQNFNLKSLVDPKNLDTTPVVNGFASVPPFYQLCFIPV

[4] = test system: Streptococcus; assay: Group A Streptococcus viability loss, dose response, counter-screen for streptokinase expression inhibitor project, luminescence, BacTiterGlo (AID 1915); assay type: functional, organism-based;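 note: potency for reduction of bacterial viability or growth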
[5] = test system: Streptococcus sp. 'group A'; assay: growth inhibition of control SK(-) GAS strain, dose response, counter-screen for streptokinase expression inhibitor project, luminescence, kanamycin, BacTiterGlo, confirmation (AID 1900); assay type: functional, organism-based
[6] = inhibitors of firefly luciferase expression or activity, dose response, H4 neuroglioma cells, luminescence (AID 1990); assay type: functional, cell-based
[7] = inhibitors of intracellular T. cruzi replication, confirmation, NIH3T3 host cells, beta-gal luminescence (AID 2044); assay type: functional, cell-based;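 note: intracellular parasites grown in NIH/3T3 mouse fibroblasts as host cells; luminescent beta-galactosidase reporter signal from transgenic T. cruzi replicating inside host cells; inhibitors lower the luminescence signal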
[8] = cytotoxicity toward NIH3T3 fibroblasts, dose response, counter-screen, cell-based, ATP luminescence, mouse fibroblasts (AID 2010); assay type: functional;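 note: cells exposed to compound for about 90 hours before reading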

In the case of `COc1c(F)c(F)c(C(=O)O)c(Nc2ccc(C)cc2)c1F`, the AC50 [1] is reported as 22.4 µM (inconclusive).
With `CC1CC(C)CN(C/C=C/c2ccccc2[N+](=O)[O-])C1` (configuration not stated) the AC50 [1] was 14.1 µM (inconclusive), the AC50 [2] was 25.1 µM (inconclusive) and the AC50 [3] was 1.58 µM (inconclusive).
For `O=C(Nc1nnc(C2=COCCO2)o1)c1ccc(Br)cc1`, the EC50 [4] was 5.47 µM (active) and the EC50 [5] was 1.9 µM (active).
With `CCCNC(=O)OC[C@@H]1O[C@H](CCO/N=C2\c3cc(OC)ccc3O[C@H](c3cccc(OC)c3)[C@H]2O)C=C[C@@H]1Oc1ccc(OC)cc1` the AC50 [3] was 6.31 µM (inconclusive).
For `O=[N+]([O-])c1ccc([C@@H](Nc2ccccc2)c2ccc3cccnc3c2O)cc1`, the AC50 [3] was 6.31 µM (inconclusive).
In the case of `CCOC(=O)CNS(=O)(=O)c1cc(-c2nn(C)c(=O)c3ccccc23)ccc1C`, the AC50 [2] is reported as 39.8 µM (inconclusive).
With `CN(C)c1ncc2nc(-c3ccc(F)cc3)c(=O)n(C3CC3)c2n1` the AC50 [3] was 0.251 µM (inconclusive).
In the case of `COc1ccc(OC)c(NC(=O)c2cc3n(n2)C(C(F)(F)F)CC(c2ccc4c(c2)OCO4)N3)c1` (configuration not stated), the AC50 [3] is reported as 0.794 µM (inconclusive).
In the case of `CCc1ccc(OCC(=O)OC2CCS(=O)(=O)C2)cc1` (configuration not stated), the AC50 [1] is reported as 12.6 µM (inconclusive).
With `CC(=O)Nc1cccc(NC(=O)C2CCCN2C(=O)Nc2ccccc2C)c1` (configuration not stated) the AC50 [1] was 25.1 µM (inconclusive) and the AC50 [3] was 20 µM (inconclusive).
With `COc1ccc(-c2csc3c2[N+]2=CCC=C2C3[O-])cc1` (configuration not stated) the AC50 [2] was 3.16 µM (inconclusive) and the AC50 [3] was 6.31 µM (inconclusive).
With `CN1CCCC2(CCN(S(=O)(=O)c3ccccc3)CC2)C1` the AC50 [1] was 20 µM (inconclusive).
For `CCc1sc(-c2c(C#N)c(N)nc3c2CCCCCC3)cc1[N+](=O)[O-]`, the AC50 [3] was 2.82 µM (inconclusive).
For `Cc1nnc(C)n1/N=C/c1ccc(-c2ccccc2)cc1`, the AC50 [1] was 10 µM (inconclusive), the AC50 [2] was 22.4 µM (inconclusive) and the AC50 [3] was 12.6 µM (inconclusive).
In the case of `Cc1ccc(C(=O)N/N=C/c2cn(Cc3ccccc3)c3ccccc23)cn1`, the EC50 [6] is reported as 7.88 µM (active).
In the case of `C=CCNc1cnn(-c2ccc(C)cc2)c(=O)c1Cl`, the AC50 [1] is reported as 28.2 µM (inconclusive).
In the case of `COc1ccc(-c2cc3ncnc(Cl)c3s2)cc1`, the EC50 [4] is reported as 26 µM (active) and the EC50 [5] is reported as 9.73 µM (active).
In the case of `O=C(CSCc1ccccc1Cl)NNC(=O)c1ccccc1`, the AC50 [1] is reported as 15.8 µM (inconclusive) and the AC50 [2] is reported as 11.2 µM (inconclusive).
With `COc1ccccc1C(=O)NNC(=O)C(=O)Nc1ccc(C)c(Cl)c1` the EC50 [4] was 3.87 µM (active) and the EC50 [5] was 1.73 µM (active).
In the case of `Cc1cccc(N(CC(=O)NC2CCCC2)C(=O)c2cc3cc4cccc(C)c4nc3s2)c1C`, the EC50 [7] is reported as 1.6 µM (active) and the EC50 [8] is reported as > 60 µM (not active).
For `O=C(CCC(=O)OCc1ccc(C(=O)Oc2ccccc2)cc1)Nc1cccc2ccccc12`, the AC50 [1] was 8.91 µM (inconclusive).
With `CCCCCCCC(=O)O[C@H](CC(=O)O)C[N+](C)(C)C` [OCTANOYLCARNITINE] the AC50 [1] was 31.6 µM (inconclusive).
In the case of `CCNCc1cc(OCC)c(OCC(=O)NCCc2ccccc2)cc1Cl`, the AC50 [3] is reported as 20 µM (inconclusive).
With `Cn1c(=O)c(-c2cccs2)nc2cncnc21` the AC50 [3] was 39.8 µM (inconclusive).
For `CC(C)(CO)N1CCN(C(S)=Nc2ccccc2)CC1`, the AC50 [1] was 6.31 µM (inconclusive).
For `N[C@H](C(=O)O)[C@H](O)C(=O)O`, the AC50 [1] was 39.8 µM (inconclusive) and the AC50 [2] was 0.0316 µM (inconclusive).
For `FC(F)(F)c1nc2ccc(SSc3ccc4nc(C(F)(F)F)[nH]c4c3)cc2[nH]1`, the AC50 [1] was 0.501 µM (inconclusive) and the AC50 [3] was 7.94 µM (inconclusive).
With `COc1ccc2c(c1)C(=O)N(Cc1ccco1)C(=O)/C2=C\Nc1c(C)n(C)n(-c2ccccc2)c1=O` the AC50 [2] was 8.91 µM (inconclusive) and the AC50 [3] was 7.94 µM (inconclusive).
For `Cc1cccc(Nc2nc(-c3ccncc3)cs2)c1`, the EC50 [7] was 0.154 µM (active) and the EC50 [8] was 6.1 µM (active).
In the case of `Cc1cccc(NC(=O)c2cccc(Cn3cc(Br)c([N+](=O)[O-])n3)c2)c1C`, the EC50 [7] is reported as 0.834 µM (active) and the EC50 [8] is reported as 39 µM (active).
With `C=CC[C@@H]1C=C[C@@H](O/N=C\C[C@@H]2C=C[C@H](OC(C)=O)[C@H](COC(C)=O)O2)[C@@H](CO)O1` the AC50 [2] was 3.98 µM (inconclusive).
For `OCCNCCCOc1cccc(Cl)c1Cl`, the AC50 [2] was 31.6 µM (inconclusive).
With `COc1cc2c(C(=O)N3CCN(C)CC3)c(C)n(-c3ccccc3)c2cc1Br` the AC50 [1] was 25.1 µM (inconclusive) and the AC50 [3] was 22.4 µM (inconclusive).
With `Cc1ccc(-c2cc(C(F)F)n3ncc(C(=O)N4CCN(c5ccccn5)CC4)c3n2)cc1` the EC50 [7] was 0.5 µM (active) and the EC50 [8] was > 60 µM (not active).
In the case of `CCc1nnc2sc(-c3ccc(NC(=O)c4ccco4)cc3)nn12`, the AC50 [1] is reported as 14.1 µM (inconclusive) and the AC50 [2] is reported as 0.708 µM (inconclusive).
In the case of `Cc1nc(SC2CC(=O)N(c3ccc([N+](=O)[O-])cc3)C2=O)nc2c1CCCC2` (configuration not stated), the AC50 [2] is reported as 20 µM (inconclusive) and the AC50 [3] is reported as 11.2 µM (inconclusive).
For `CN1CCN(/N=C/c2ccc(-c3ccc([N+](=O)[O-])cc3)o2)CC1`, the EC50 [7] was 1.11 µM (active) and the EC50 [8] was > 60 µM (not active).
For `N#C/C(=C\c1cc([N+](=O)[O-])c(N2CCCCC2)cc1N1CCCCC1)c1nn(-c2ccccc2)c(N)c1C#N`, the AC50 [2] was 2.24 µM (inconclusive).
With `O=C(Cn1cnc2cc([N+](=O)[O-])ccc2c1=O)Nc1ccccc1-c1ccccc1` the EC50 [7] was 0.629 µM (active) and the EC50 [8] was > 30 µM (not active).
With `Cc1ccc(C)c(N2CCN(C(=O)c3ccc(Cn4c(=S)[nH]c5ccc(N6CCOCC6)cc5c4=O)cc3)CC2)c1` the EC50 [7] was 0.458 µM (active) and the EC50 [8] was > 60 µM (not active).
For `COc1cccc(Nc2ncc3nc(-c4cccs4)c(=O)n(Cc4cccs4)c3n2)c1`, the AC50 [1] was 2 µM (inconclusive).
For `Clc1ccc(OCCCCCN2CCCC2)c(Br)c1`, the EC50 [7] was 0.231 µM (active) and the EC50 [8] was 10.9 µM (active).
With `COc1ccccc1CN1CCCC(C(=O)c2ccccc2SC)C1` (configuration not stated) the EC50 [7] was 1.6 µM (active) and the EC50 [8] was > 60 µM (not active).
For `CC(=O)c1cccc(NC(=O)CSCc2ccccc2)c1`, the AC50 [2] was 28.2 µM (inconclusive) and the AC50 [3] was 7.94 µM (inconclusive).
For `CCc1ccc(OCCNC(=O)c2ccccc2SCc2ccc(F)cc2)cc1`, the EC50 [7] was 2.67 µM (active) and the EC50 [8] was > 60 µM (not active).
